Molecular target: T1, GST-ALK5 (Homo sapiens, UniProt P36897)
T1 sequence (P36897 34-503): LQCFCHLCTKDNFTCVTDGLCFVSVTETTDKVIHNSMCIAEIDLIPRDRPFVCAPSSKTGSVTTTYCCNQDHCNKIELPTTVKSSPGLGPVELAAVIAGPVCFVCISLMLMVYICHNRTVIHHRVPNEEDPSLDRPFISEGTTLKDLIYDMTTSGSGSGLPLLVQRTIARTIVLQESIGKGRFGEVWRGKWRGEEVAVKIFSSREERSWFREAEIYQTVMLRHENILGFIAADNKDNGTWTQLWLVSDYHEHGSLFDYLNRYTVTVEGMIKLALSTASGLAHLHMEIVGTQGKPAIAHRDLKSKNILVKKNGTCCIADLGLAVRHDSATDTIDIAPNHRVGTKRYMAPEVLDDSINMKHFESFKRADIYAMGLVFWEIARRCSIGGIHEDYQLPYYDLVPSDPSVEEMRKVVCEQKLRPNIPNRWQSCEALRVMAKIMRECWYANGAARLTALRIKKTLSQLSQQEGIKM
Test: In-vitro (enzyme) kinase assay, 384-well flashplate, GST-SMAD2 substrate
Assay type: biochemical
Conditions: 31.2 nM GST-ALK5, 439 nM GST-SMAD2, 3 mM ATP, 30° C., 45 min
Procedure: In-Vitro (Enzyme) Assay for Determination of the Efficacy of Inhibitors of the Inhibition of TGF-Beta-Mediated Effects
The kinase assay was carried out as 384-well flashplate assay. 31.2 nM of GST-ALK5, 439 nM of GST-SMAD2 and 3 mM of ATP (with 0.3 μCi of ^33P-ATP/well) were incubated in a total volume of 35 μl (20 mM of HEPES, 10 mM of MgCl2, 5 mM of MnCl2, 1 mM of DTT, 0.1% of BSA, pH 7.4) without or with test substance (5-10 concentrations) at 30° C. for 45 min. The reaction was stopped using 25 μl of 200 mM EDTA solution, filtered with suction at room temperature after 30 min, and the wells were washed with 3 times 100 μl of 0.9% NaCl solution. Radioactivity was measured in the TopCount. The IC50 values were calculated using RS1 (Table 1). Above and below, all temperatures were indicated in ° C.

Compound	IC50 [nM]
C=C(C)CCOc1nc(-c2cccc(C(F)(F)F)c2)c2c(N)c(C(N)=O)sc2n1 [No 17, 5-Amino-2-(3-methyl-but-3-enyloxy)-4-(3-trifluoromethyl-phenyl)-thieno[2,3-d]pyrimidine-6-carboxylic acid amide]	100 to 500
NC(=O)c1sc2nc(OC[C@@H](O)CO)nc(-c3cccc(Cl)c3)c2c1N [No 18, 5-Amino-4-(3-chloro-phenyl)-2-((S)-2,3-dihydroxy-propoxy)-thieno[2,3-d]pyrimidine-6-carboxylic acid amide]	100 to 500
COc1nc(-c2ccc(C)o2)c2c(N)c(C(N)=O)sc2n1 [No 19, 5-Amino-2-methoxy-4-(5-methyl-furan-2-yl)-thieno[2,3-d]pyrimidine-6-carboxylic acid amide]	< 100
Cc1ccc(-c2nc(OCCN3CCOCC3)nc3sc(C(N)=O)c(N)c23)o1 [No 20, 5-Amino-4-(5-methyl-furan-2-yl)-2-(2-morpholin-4-yl-ethoxy)-thieno[2,3-d]pyrimidine-6-carboxylic acid amide]	> 1000
Cc1ccc(-c2nc(OCCO)nc3sc(C(N)=O)c(N)c23)o1 [No 21, 5-Amino-2-(2-hydroxy-ethoxy)-4-(5-methyl-furan-2-yl)-thieno[2,3-d]pyrimidine-6-carboxylic acid amide]	100 to 500
Cc1ccc(-c2nc(OCCCO)nc3sc(C(N)=O)c(N)c23)o1 [No 22, 5-Amino-2-(3-hydroxy-propoxy)-4-(5-methyl-furan-2-yl)-thieno[2,3-d]pyrimidine-6-carboxylic acid amide]	100 to 500
COc1nc(-c2ccc(C)s2)c2c(N)c(C(N)=O)sc2n1 [No 23, 5-Amino-2-methoxy-4-(5-methyl-thiophen-2-yl)-thieno[2,3-d]pyrimidine-6-carboxylic acid amide]	100 to 500
Cc1ccc(-c2nc(OCc3cnn(C)c3)nc3sc(C(N)=O)c(N)c23)o1 [No 24, 5-Amino-4-(5-methyl-furan-2-yl)-2-(1-methyl-1H-pyrazol-4-ylmethoxy)-thieno[2,3-d]pyrimidine-6-carboxylic acid amide]	< 100
COc1nc(-c2cccc(C)n2)c2c(N)c(C(N)=O)sc2n1 [No 25, 5-Amino-2-methoxy-4-(6-methyl-pyridin-2-yl)-thieno[2,3-d]pyrimidine-6-carboxylic acid amide]	< 100
Cc1cccc(-c2nc(OCCO)nc3sc(C(N)=O)c(N)c23)n1 [No 26, 5-Amino-2-(2-hydroxy-ethoxy)-4-(6-methyl-pyridin-2-yl)-thieno[2,3-d]pyrimidine-6-carboxylic acid amide]	< 100
Cc1cccc(-c2nc(OCCn3cccn3)nc3sc(C(N)=O)c(N)c23)n1 [No 27, 5-Amino-4-(6-methyl-pyridin-2-yl)-2-(2-pyrazol-1-yl-ethoxy)-thieno[2,3-d]pyrimidine-6-carboxylic acid amide]	< 100
Cc1cccc(-c2nc(OCc3ccn(C)n3)nc3sc(C(N)=O)c(N)c23)n1 [No 28, 5-Amino-2-(1-methyl-1H-pyrazol-3-ylmethoxy)-4-(6-methyl-pyridin-2-yl)-thieno[2,3-d]pyrimidine-6-carboxylic acid amide]	< 100
Cc1ccc(-c2nc(OCCn3cccn3)nc3sc(C(N)=O)c(N)c23)o1 [No 29, 5-Amino-4-(5-methyl-furan-2-yl)-2-(2-pyrazol-1-yl-ethoxy)-thieno[2,3-d]pyrimidine-6-carboxylic acid amide]	100 to 500
Cc1ccc(-c2nc(OCc3ccncc3)nc3sc(C(N)=O)c(N)c23)o1 [No 30, 5-Amino-4-(5-methyl-furan-2-yl)-2-(pyridin-4-ylmethoxy)-thieno[2,3-d]pyrimidine-6-carboxylic acid amide]	500 to 1000
Cc1ccc(-c2nc(OCc3cccnc3)nc3sc(C(N)=O)c(N)c23)o1 [No 31, 5-Amino-4-(5-methyl-furan-2-yl)-2-(pyridin-3-ylmethoxy)-thieno[2,3-d]pyrimidine-6-carboxylic acid amide]	100 to 500
Cc1ccc(-c2nc(OCc3ccn(C)n3)nc3sc(C(N)=O)c(N)c23)o1 [No 32, 5-Amino-4-(5-methyl-furan-2-yl)-2-(1-methyl-1H-pyrazol-3-ylmethoxy)-thieno[2,3-d]pyrimidine-6-carboxylic acid amide]	100 to 500

Compound	IC50 [nM]
Cc1cccc(-c2nc(OCc3cnn(C)c3)nc3sc(C(N)=O)c(N)c23)n1 [No 33, 5-Amino-2-(1-methyl-1H-pyrazol-4-ylmethoxy)-4-(6-methyl-pyridin-2-yl)-thieno[2,3-d]pyrimidine-6-carboxylic acid amide]	< 100
Cc1ccc(-c2nc(O[C@H](C)[C@@H](C)O)nc3sc(C(N)=O)c(N)c23)o1 [No 34, 5-Amino-2-((1R,2R)-2-hydroxy-1-methyl-propoxy)-4-(5-methyl-furan-2-yl)-thieno[2,3-d]pyrimidine-6-carboxylic acid amide]	100 to 500
Cc1cccc(-c2nc(OCc3ccc(OCCN4CCOCC4)cc3)nc3sc(C(N)=O)c(N)c23)n1 [No 35, 5-Amino-4-(6-methyl-pyridin-2-yl)-2-[4-(2-morpholin-4-yl-ethoxy)-benzyloxy]-thieno[2,3-d]pyrimidine-6-carboxylic acid amide]	100 to 500
Cc1ccc(-c2nc(O[C@@H](C)[C@H](C)O)nc3sc(C(N)=O)c(N)c23)o1 [No 36, 5-Amino-2-((1S,2S)-2-hydroxy-1-methyl-propoxy)-4-(5-methyl-furan-2-yl)-thieno[2,3-d]pyrimidine-6-carboxylic acid amide]	100 to 500
Cc1ccc(-c2nc(OCc3ccccn3)nc3sc(C(N)=O)c(N)c23)o1 [No 38, 5-Amino-4-(5-methyl-furan-2-yl)-2-(pyridin-2-ylmethoxy)-thieno[2,3-d]pyrimidine-6-carboxylic acid amide]	100 to 500
Cc1ccc(-c2nc(OCCCn3cccn3)nc3sc(C(N)=O)c(N)c23)o1 [No 39, 5-Amino-4-(5-methyl-furan-2-yl)-2-(3-pyrazol-1-yl-propoxy)-thieno[2,3-d]pyrimidine-6-carboxylic acid amide]	100 to 500
Cc1cccc(-c2nc(OCc3cn(C)cn3)nc3sc(C(N)=O)c(N)c23)n1 [No 40, 5-Amino-2-(1-methyl-1H-imidazol-4-ylmethoxy)-4-(6-methyl-pyridin-2-yl)-thieno[2,3-d]pyrimidine-6-carboxylic acid amide]	< 100
NC(=O)c1sc2nc(OCCCn3cccn3)nc(-c3cccc(Cl)c3)c2c1N [No 41, 5-Amino-4-(3-chloro-phenyl)-2-(3-pyrazol-1-yl-propoxy)-thieno[2,3-d]pyrimidine-6-carboxylic acid amide]	< 100
NC(=O)c1sc2nc(OCCn3cccn3)nc(-c3cccc(Cl)c3)c2c1N [No 42, 5-Amino-4-(3-chloro-phenyl)-2-(2-pyrazol-1-yl-ethoxy)-thieno[2,3-d]pyrimidine-6-carboxylic acid amide]	< 100
NC(=O)c1sc2nc(OCCn3ccnc3)nc(-c3cccc(Cl)c3)c2c1N [No 43, 5-Amino-4-(3-chloro-phenyl)-2-(2-imidazol-1-yl-ethoxy)-thieno[2,3-d]pyrimidine-6-carboxylic acid amide]	100 to 500
Cn1cc(COc2nc(-c3cccc(Cl)c3)c3c(N)c(C(N)=O)sc3n2)cn1 [No 44, 5-Amino-4-(3-chloro-phenyl)-2-(1-methyl-1H-pyrazol-4-ylmethoxy)-thieno[2,3-d]pyrimidine-6-carboxylic acid amide]	< 100
Cn1cnc(COc2nc(-c3cccc(Cl)c3)c3c(N)c(C(N)=O)sc3n2)c1 [No 45, 5-Amino-4-(3-chloro-phenyl)-2-(1-methyl-1H-imidazol-4-ylmethoxy)-thieno[2,3-d]pyrimidine-6-carboxylic acid amide]	< 100
Cn1ccc(COc2nc(-c3cccc(Cl)c3)c3c(N)c(C(N)=O)sc3n2)n1 [No 46, 5-Amino-4-(3-chloro-phenyl)-2-(1-methyl-1H-pyrazol-3-ylmethoxy)-thieno[2,3-d]pyrimidine-6-carboxylic acid amide]	< 100
Cn1nccc1COc1nc(-c2cccc(Cl)c2)c2c(N)c(C(N)=O)sc2n1 [No 47, 5-Amino-4-(3-chloro-phenyl)-2-(2-methyl-2H-pyrazol-3-ylmethoxy)-thieno[2,3-d]pyrimidine-6-carboxylic acid amide]	< 100
NC(=O)c1sc2nc(OCCN3CCCC3=O)nc(-c3cccc(Cl)c3)c2c1N [No 48, 5-Amino-4-(3-chloro-phenyl)-2-[2-(2-oxo-pyrrolidin-1-yl)-ethoxy]-thieno[2,3-d]pyrimidine-6-carboxylic acid amide]	< 100
Cc1cccc(-c2nc(OCCCn3cccn3)nc3sc(C(N)=O)c(N)c23)n1 [No 49, 5-Amino-4-(6-methyl-pyridin-2-yl)-2-(3-pyrazol-1-yl-propoxy)-thieno[2,3-d]pyrimidine-6-carboxylic acid amide]	< 100

Source: patent publication US20120101095A1, “ALKOXY-THIENOPYRIMIDINES AS TGF-BETA RECEPTOR KINASE MODULATORS” (priority 2009, published 2012)
